The assay relates to CEM cells HIV-1 protection, formazan growth assay. The assay can be described thus: NCI AIDS Antiviral Assay. Conditions: for IC50: measured here: growth of uninfected CEM cells. The essentials: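 CEM (human) cells, HIV-1 infected vs uninfected, 5-point dosing, formazan growth read-out. Retest threshold 50% protection.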

74 compounds from PubChem BioAssay AID179 (DTP/NCI, 2004) can be followed below.

Values joined by “and” are separate entries in the source; they are usually repeats but may differ in a detail not shown here. Equal entries are not always repeated. Active and inactive are the calls of the source.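 How the source made its calls: active means compounds giving half or more protection of infected cells from virus-caused growth loss, again on retest; inactive means the rest.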 Where a SMILES comes first, the peptide text is derived from it. Bounds are passed on as bounds.

Take `C/C(O)=C(\N=O)C(=O)NCc1ccccc1`: the EC50 is > 1120 µM and the IC50 was > 1120 µM.
As to `O=C1C=C(Br)c2c(-c3ccccc3)oc3cccc1c23`, the result was inactive.
`CCOC(=O)/C(=C/c1ccccc1)C(=O)c1ccccc1`: the EC50 was > 25.7 µM and the IC50 amounted to 20 µM.
The matching figures for `O=C(NC(OCc1ccccc1)(C(F)(F)F)C(F)(F)F)OCc1ccccc1`: > 200 µM and 32.4 µM.
With `Nc1nc(Cl)c(N)c(NCC2(CO)CC(CCCc3ccccc3)C2)n1` (stereo not given), the EC50 is > 0.2 µM and the IC50 came to 0.186 µM.
Consider `O=C(COc1cc(=O)oc2ccccc12)c1ccccc1`, for which the EC50 was > 200 µM and the IC50 was found to be 151 µM.
As for `OC1CN=C2C=CC=CN2C1` (stereo not given), the EC50 was > 200 µM and the half-inhibitory concentration (IC50) is > 200 µM.
For `O=C(/C=C/c1ccc(OCC(=O)N2CCN(c3ccccc3)CC2)cc1)c1ccccc1`, the EC50 was > 23.4 µM and the IC50 is > 23.4 µM.
Consider `OC12CC/C(=N/OCc3ccccc3)CC1c1ccccc12` (stereo not given), for which the EC50 is > 162 µM and the IC50 was 148 µM.
For the compound `CCOC(=O)/C(=C\c1ccc(Br)cc1)C(C)=O`, the EC50 is > 120 µM and the IC50 was 70.8 µM.
Turning to `CCOP(=O)(CC1CC(O)(CNc2cc(Cl)nc(N)n2)C1)OCC` (stereo not given), the EC50 is > 200 µM and the IC50 is > 200 µM.
Take `COc1ccccc1C1C=NNC1` (stereo not given): the EC50 is > 200 µM and the IC50 amounted to 107 µM.
Taken in the same sequence, the figures for `CCCCCCCCCCCCCCCC1=NCCN1C` were > 45.7 µM and 35.5 µM.
For `N#C[C@H](c1ccccn1)c1nc2ccccc2nc1Cl`, the EC50 is > 200 µM and the IC50 came to 115 µM.
For the compound `NNc1nncc2n[nH]nc12`, the EC50 is > 200 µM and the IC50 is > 200 µM.
On to `CCOC(=O)C(C)NC(=O)NC12CC3CC(CC(F)(C3)C1)C2` (stereo not given), for which the EC50 was > 219 µM and the IC50 is > 200 µM.
As to `S=C1NC2(CCCCC2)N2C(=S)NC3(CCCCC3)N12`, the outcome was inactive.
Turning to `Cc1ccnc2c1C(=O)C(=O)C=C2N1CCOCC1`, the outcome was inactive.
For the compound `COC(=O)CP(=O)(OCC(F)(F)F)OCC(F)(F)F`, the EC50 was > 794 µM and the IC50 was 437 µM.
Consider `Cc1cn([C@H]2CN(O)C[C@@H](CO)O2)c(=O)[nH]c1=O`, for which the EC50 was > 200 µM and the IC50 was > 200 µM.
Take `Cc1ccc(NC(=O)C(=O)C(C#N)c2ccccc2C)cc1C` (stereo not given): the EC50 was > 23.4 µM and the IC50 is > 23.4 µM.
For `COC(=O)c1cc(C(=CC(=O)O)c2cc(Cl)c(OC)c(C(=O)OC)c2)cc(Cl)c1OC`, the EC50 is > 200 µM and the IC50 turned out to be 95.5 µM.
Regarding `O=C1NN=C(c2ccccc2)SC1c1ccccc1` (stereo not given), the EC50 is > 200 µM and the IC50 is > 200 µM.
For the compound `Cc1c(C2(c3cc(C(C)C)c(O)c(Br)c3C)OS(=O)(=O)c3ccccc32)cc(C(C)C)c(O)c1Br`, the EC50 is > 288 µM and the IC50 stood at 97.7 µM.
With `O=C(O)c1ccc(NC(=O)c2ccccc2[Se][Se]c2ccccc2C(=O)Nc2ccc(C(=O)O)cc2)cc1`, the EC50 was 13.8 µM and the IC50 is 18.6 µM.
As for `C=CCN=C([S-])Nc1cccc(C(=O)O)c1.[Au+].[Na+]`, the outcome was inactive.
Regarding `CC(NC(=O)CNC(=O)C(N)CO)C(=O)NC(CCC(N)=O)C(=O)NC(CCCCN)C(=O)N1CCCC1C(=O)NC(CCC(=O)O)C(=O)NC(CCC(=O)O)C(=O)NC(CCC(=O)O)C(=O)NC(CO)C(=O)NC(CO)C(=O)NC(CC(N)=O)C(=O)NC(C)C(=O)NC(Cc1cnc[nH]1)C(=O)NC(CO)C(=O)O` (stereo not given) (H-SGAQKPEEESSNAHS-OH; configuration not given here), the EC50 was > 100 µM and the IC50 was > 100 µM.
Take `c1ccc(Cn2c(-c3ccc(-c4ccccc4)cc3)cc3ccccc32)cc1`: the EC50 is > 100 µM and the IC50 is > 100 µM.
Take `COc1ccc(NC(=O)CC2SC(=Nc3ccccc3C)NC2=O)c([N+](=O)[O-])c1` (stereo not given): the outcome was inactive.
As to `C[N+](C)(C)C1C=CCC2=C1S(=O)(=O)C2` (stereo not given), the EC50 was > 741 µM and the IC50 amounted to 355 µM.
Taken in the same sequence, the figures for `C=C1CC[C@@H]2C(C)(C)C(O)CCC2(C)C1COc1ccc2ccc(=O)oc2c1` (stereo not given in full) were > 67.6 µM and 36.3 µM.
Take `CC1OC(n2cc(F)c(=O)[nH]c2=O)C=CC1O` (stereo not given): the EC50 was > 1020 µM and the IC50 stood at 407 µM.
Taken in the same sequence, the figures for `Cc1cccc(C)c1NC(=O)C(=O)CC(=O)c1sc(Nc2c(C)cccc2C)nc1C` were > 200 µM and > 200 µM.
For the compound `O=C(CN1CCCCC1)N1CCc2c([nH]c3ccccc23)C1c1cccnc1` (stereo not given), the EC50 is > 26.9 µM and the IC50 is > 26.9 µM.
For `Clc1ccnc2c1ccc1c(Cl)ccnc12`, the EC50 was > 75.9 µM and the 50% inhibitory concentration (IC50) came to 13.8 µM.
For `CSC1=C(C#N)C(=O)N(c2ccc(C)cc2)C(=S)C1C#N` (stereo not given), the EC50 is > 200 µM and the IC50 worked out at 174 µM.
The matching figures for `O=C(OCc1ccccc1)c1ccccc1-c1c2ccc(=O)cc-2oc2cc(OCc3ccccc3)ccc12`: > 5.13 µM and > 5.13 µM.
The matching figures for `COc1ccc2[nH]cc(CN3CCC(CO)(c4ccccc4)CC3)c2c1`: > 200 µM and 91.2 µM.
For `OCC(O)CSSCC(O)C(O)CSSCC(O)CO` (stereo not given), the result was inactive.
In the case of `Cc1ncc([N+](=O)[O-])n1CC(O)CCl` (stereo not given), the EC50 is > 200 µM and the IC50 was > 200 µM.
On to `c1cnn([B-]2(n3cccn3)n3ccc[n+]3[B-](n3cccn3)(n3cccn3)n3ccc[n+]32)c1`, for which the EC50 was > 200 µM and the IC50 was > 200 µM.
For `COc1cc(O)c2c(c1)cc(O)c1c(=O)cc(C)oc12`, the EC50 was > 195 µM and the concentration for half-maximal inhibition (IC50) is 10.5 µM.
`O=C(SSC(=O)c1ccccc1)c1ccccc1`: the EC50 was > 200 µM and the half-inhibitory concentration (IC50) came to 22.4 µM.
Take `CCOC(=O)C1=c2[nH]c3cccc4cccc(c43)n2C(=O)CC1c1ccccc1` (stereo not given): the EC50 was > 100 µM and the IC50 came out at 75.9 µM.
The matching figures for `O=C(NCCCCCCNC(=O)c1cc(-c2ccccc2)nc2ccccc12)c1cc(-c2ccccc2)nc2ccccc12`: > 200 µM and > 200 µM.
Turning to `COc1ccc(/C=N/NC(=S)Nc2ccccc2)cc1`, the EC50 was > 200 µM and the IC50 is > 200 µM.
Turning to `COC(=O)c1c(C(=O)OC)c2c(C)nn3ccc1n23`, the EC50 was > 955 µM and the IC50 is > 955 µM.
In the case of `CNS(=O)(=O)NN(C)S(=O)(=O)c1ccc(OC)cc1`, the EC50 is > 407 µM and the IC50 turned out to be 105 µM.
For `Cc1nc(-c2cc3ccccc3oc2=O)cs1`, the outcome was inactive.
For the compound `CC(C)N1CN(C(C(=O)N[C@@H]2C(=O)N3C2SC(C)(C)C3C(=O)O)c2ccc(O)cc2)CSC1=S` (stereo not given in full), the EC50 was > 479 µM and the half-inhibitory concentration (IC50) came out at 79.4 µM.
Turning to `CC(C(=O)O)C(C)(C)C(=O)O` (stereo not given), the EC50 was > 200 µM and the IC50 was > 200 µM.
In the case of `O=C(O)c1ccccc1O.OC1CCCC2CCC[N-]C12.[Cu+]` (stereo not given), the EC50 was > 200 µM and the IC50 is 0.603 µM.
Take `Cc1ccc(/C=N/Nc2ncccn2)s1`: the EC50 is > 200 µM and the half-maximal inhibitory concentration (IC50) was > 200 µM.
Regarding `CN(CCN1C(=O)c2cccc3cc([N+](=O)[O-])cc(c23)C1=O)CCN1C(=O)c2cccc3cc([N+](=O)[O-])cc(c23)C1=O`, the EC50 is > 9.12 µM.
For `COC(=O)/C=C(/C(=O)OC)c1c(C)cc2c(C)cc(C)cc(C)c1-2`, the EC50 is > 200 µM and the IC50 was 10.7 µM.
On to `COC(=O)CCCN(C)c1n[nH]c(N)n1`, for which the EC50 was > 200 µM and the IC50 was > 200 µM.
With `O=[N+]([O-])c1ccc(-c2nnc(C34CC5CC(CC(C5)C3)C4)o2)cc1`, the EC50 was > 200 µM and the IC50 is > 200 µM.
Take `Cn1c(SSc2ccc(-c3cccnc3)n2C)ccc1-c1cccnc1`: the EC50 was > 200 µM; the 50% inhibitory concentration (IC50) is 1.86 µM and 2.45 µM.
Consider `CCOC(=O)c1nc2ccccc2nc1Nc1ccc(C(=O)OC)s1`, for which the EC50 is > 200 µM and the IC50 is > 200 µM.
As for `Cc1nc2c(ccc3ncccc32)[nH]1`, the result was inactive.
As to `CC(C)Cc1nc(-c2cc3ccccc3[nH]2)c(CC(C)C)nc1-c1cc2ccccc2[nH]1`, the EC50 was > 4.68 µM and the IC50 is > 4.68 µM.
As to `COC(=O)C(CC(=O)Nc1ccc(C)cc1)C(=O)C(=O)Nc1ccccc1C(C)C` (stereo not given), the EC50 is > 229 µM and the IC50 is > 229 µM.
Consider `Brc1cccc(C2SCc3nc4ccccc4n32)c1` (stereo not given), for which the result was inactive.
As to `N/C(=N/N=C/c1ccc(Cl)c([N+](=O)[O-])c1)NO`, the outcome was inactive.
For the compound `CN(C)C(=O)OC1C(=O)N(C)c2ccc(Cl)cc2C2(c3ccccc3)N1C2(Cl)Cl` (stereo not given), the EC50 was > 200 µM and the IC50 was determined as 10.7 µM.
In the case of `O=C(/C=N/O)Nc1cccc(Cl)c1I`, the EC50 was > 110 µM and the half-inhibitory concentration (IC50) amounted to 93.3 µM.
With `COC(=O)C(=O)C(C(=O)C(=O)Nc1ccc(Cl)c(Cl)c1)c1nc2ccc(C(=O)c3ccccc3)cc2[nH]c1=O` (stereo not given), the EC50 is > 33.1 µM and the IC50 is > 33.1 µM.
For `Cc1cccc2[s+]snc12`, the EC50 was > 245 µM and the IC50 was found to be 75.9 µM.
Taken in the same sequence, the figures for `COC(=O)C1=COC(C)C2CN3CCc4c([nH]c5cc(OC)ccc45)C3CC12` (stereo not given) were > 46.8 µM and > 46.8 µM.
Take `CCCCOC1CC2(c3ccc(OC)cc3)C(=O)c3ccccc3N2O1` (stereo not given): the EC50 is > 112 µM and the IC50 was 24 µM.
The matching figures for `Cc1ccc(N=Nc2c(N)nn3cc4c(nc23)-c2ccccc2C4)cc1`: > 200 µM and 2.95 µM.
As to `Cn1c(=O)c2c(no[n+]2[O-])c2ccccc21`, the outcome was inactive.
On to `NC(N)=NCCCS(=O)(=O)Nc1ccc(Nc2c3ccccc3nc3cc([N+](=O)[O-])ccc23)cc1`, for which the result was inactive.
Regarding `Cc1ccc(S(=O)(=O)O/N=C(/CC/C(=N\OS(=O)(=O)c2ccc(C)cc2)c2ccccc2)c2ccccc2)cc1`, the EC50 is > 437 µM and the half-inhibitory concentration (IC50) was > 437 µM.

In general, EC50 refers to the midpoint of the concentration-response curve. By IC50 is commonly meant the concentration that gives 50% inhibition. Read a low IC50 as greater potency.
